From patent US11192877B2, “3-(5-hydroxy-1-oxoisoindolin-2-yl)piperidine-2,6-dione derivatives and uses thereof” (Novartis AG, priority 2018, dated 2021) come the findings set out here.

Each structure is given as a SMILES string.

IKZF2 (Helios), sequence (Q9UKS7 whole entry): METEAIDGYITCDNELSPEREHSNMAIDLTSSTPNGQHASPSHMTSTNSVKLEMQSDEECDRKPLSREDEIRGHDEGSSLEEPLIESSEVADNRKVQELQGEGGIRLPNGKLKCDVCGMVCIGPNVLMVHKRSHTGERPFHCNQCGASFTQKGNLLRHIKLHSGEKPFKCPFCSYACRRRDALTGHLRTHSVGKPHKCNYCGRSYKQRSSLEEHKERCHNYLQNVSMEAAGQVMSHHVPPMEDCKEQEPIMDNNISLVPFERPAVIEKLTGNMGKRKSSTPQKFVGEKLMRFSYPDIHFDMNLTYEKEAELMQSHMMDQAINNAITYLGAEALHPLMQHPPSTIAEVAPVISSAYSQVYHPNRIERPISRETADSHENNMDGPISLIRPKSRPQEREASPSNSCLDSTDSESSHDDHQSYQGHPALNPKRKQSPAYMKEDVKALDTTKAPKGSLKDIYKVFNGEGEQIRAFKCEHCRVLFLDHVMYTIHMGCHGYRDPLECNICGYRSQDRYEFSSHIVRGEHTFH
IKZF2 (Helios), sequence (Q96SW2 whole entry): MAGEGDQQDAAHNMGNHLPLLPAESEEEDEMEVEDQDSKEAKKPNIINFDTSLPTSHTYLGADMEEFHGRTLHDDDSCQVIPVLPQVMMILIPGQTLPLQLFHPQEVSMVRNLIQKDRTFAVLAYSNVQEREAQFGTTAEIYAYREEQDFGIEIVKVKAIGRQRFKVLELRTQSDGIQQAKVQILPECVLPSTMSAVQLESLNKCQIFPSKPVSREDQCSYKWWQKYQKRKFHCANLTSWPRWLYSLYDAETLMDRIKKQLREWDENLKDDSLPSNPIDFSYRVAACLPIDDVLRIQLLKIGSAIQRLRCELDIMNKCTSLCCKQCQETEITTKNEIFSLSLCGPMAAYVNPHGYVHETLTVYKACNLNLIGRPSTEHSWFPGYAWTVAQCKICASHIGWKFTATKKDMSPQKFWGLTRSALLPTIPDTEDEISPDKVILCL
IKZF2 (Helios), sequence (Q16531 whole entry partner): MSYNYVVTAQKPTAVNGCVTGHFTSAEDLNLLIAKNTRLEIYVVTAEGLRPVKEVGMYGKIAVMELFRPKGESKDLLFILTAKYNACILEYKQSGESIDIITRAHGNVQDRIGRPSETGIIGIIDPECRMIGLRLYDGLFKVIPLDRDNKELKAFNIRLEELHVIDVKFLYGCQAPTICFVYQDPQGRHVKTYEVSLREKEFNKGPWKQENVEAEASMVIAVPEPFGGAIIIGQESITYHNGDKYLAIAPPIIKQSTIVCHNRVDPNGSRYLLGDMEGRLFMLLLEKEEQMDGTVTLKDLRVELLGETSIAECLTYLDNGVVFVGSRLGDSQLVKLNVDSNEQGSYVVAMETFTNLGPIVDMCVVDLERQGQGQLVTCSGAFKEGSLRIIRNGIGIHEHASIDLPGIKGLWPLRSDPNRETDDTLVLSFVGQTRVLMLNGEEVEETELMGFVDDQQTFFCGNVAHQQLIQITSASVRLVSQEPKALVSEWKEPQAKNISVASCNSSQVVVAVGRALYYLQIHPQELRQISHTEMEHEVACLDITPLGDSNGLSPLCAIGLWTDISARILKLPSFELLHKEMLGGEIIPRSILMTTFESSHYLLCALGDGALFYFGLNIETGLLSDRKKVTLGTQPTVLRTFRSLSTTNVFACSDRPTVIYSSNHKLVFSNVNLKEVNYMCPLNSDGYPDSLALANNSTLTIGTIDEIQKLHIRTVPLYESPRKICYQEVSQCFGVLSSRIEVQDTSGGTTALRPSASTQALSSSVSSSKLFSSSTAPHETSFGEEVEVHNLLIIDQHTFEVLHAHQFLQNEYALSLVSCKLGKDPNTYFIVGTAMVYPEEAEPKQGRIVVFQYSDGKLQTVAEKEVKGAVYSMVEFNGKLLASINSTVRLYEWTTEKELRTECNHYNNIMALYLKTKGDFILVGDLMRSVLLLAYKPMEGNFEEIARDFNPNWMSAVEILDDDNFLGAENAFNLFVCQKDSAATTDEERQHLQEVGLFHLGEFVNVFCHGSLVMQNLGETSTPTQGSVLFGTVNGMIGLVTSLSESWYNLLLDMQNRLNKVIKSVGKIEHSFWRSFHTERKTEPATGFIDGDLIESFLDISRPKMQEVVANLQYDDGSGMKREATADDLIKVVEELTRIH

This test concerns the target IKZF2 (Helios) (Homo sapiens, UniProt Q96SW2+Q9UKS7). Nature of the test: Prolabel quantification of IKZF2 protein levels in 293GT cells. The class given is cell-based. The settings on record: 24 h, Pro-label assay, 293GT cells, 10 μM, read-out: IKZF2 % protein reduction at 10 μM, 24 h.
Regarding `CCN(CC)[C@H]1CCCC[C@H]1Oc1ccc2c(c1)CN(C1CCC(=O)NC1=O)C2=O` (stereo partly drawn) [I-35, 3-(5-(((1R,2S)-2-(diethylamino)cyclohexyl)oxy)-1-oxoisoindolin-2-yl)piperidine-2,6-dione], the IKZF2 % protein reduction at 10 µM is 10%. For `CCN(CC)[C@H]1CCC[C@@H]1Oc1ccc2c(c1)CN(C1CCC(=O)NC1=O)C2=O` (stereo partly drawn) [I-13, 3-(5-(((1S,2S)-2-(diethylamino)cyclopentyl)oxy)-1-oxoisoindolin-2-yl)piperidine-2,6-dione] the value was 85%; for `O=C1CCC(N2Cc3cc(O[C@H]4CCC[C@@H]4N4CC5(COC5)C4)ccc3C2=O)C(=O)N1` (stereo partly drawn) [I-147, 3-(5-(((1S,2S)-2-(2-oxa-6-azaspiro[3.3]heptan-6-yl)cyclopentyl)oxy)-1-oxoisoindolin-2-yl)piperidine-2,6-dione], 44%.
